The values that follow come from patent publication US11529350B2, “Tyrosine kinase non-receptor 1 (TNK1) inhibitors and uses thereof” (Sumitomo Pharma Oncology, Inc., priority 2019, dated 2022).

Each structure is given as a SMILES string.

The target of test [1] is T1, TNK1 (Homo sapiens, UniProt Q13470).
T1 sequence (Q13470 1-666): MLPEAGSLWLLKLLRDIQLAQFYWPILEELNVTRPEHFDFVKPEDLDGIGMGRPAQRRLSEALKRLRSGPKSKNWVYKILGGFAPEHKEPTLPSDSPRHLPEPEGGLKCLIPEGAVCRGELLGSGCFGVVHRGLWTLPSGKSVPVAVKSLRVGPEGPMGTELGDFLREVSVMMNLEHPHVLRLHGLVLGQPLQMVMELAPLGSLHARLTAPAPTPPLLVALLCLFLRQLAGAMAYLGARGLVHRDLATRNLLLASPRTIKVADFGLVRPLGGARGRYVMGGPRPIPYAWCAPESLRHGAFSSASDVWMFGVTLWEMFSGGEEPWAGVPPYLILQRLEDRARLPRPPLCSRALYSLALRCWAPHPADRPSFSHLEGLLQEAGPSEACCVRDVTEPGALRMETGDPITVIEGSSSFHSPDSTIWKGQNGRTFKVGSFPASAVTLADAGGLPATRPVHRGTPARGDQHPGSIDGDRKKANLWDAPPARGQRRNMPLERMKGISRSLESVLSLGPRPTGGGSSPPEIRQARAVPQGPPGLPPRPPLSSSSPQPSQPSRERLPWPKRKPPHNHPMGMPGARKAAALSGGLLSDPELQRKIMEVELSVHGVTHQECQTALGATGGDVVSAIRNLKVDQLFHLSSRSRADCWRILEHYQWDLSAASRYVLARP
Nature of the test: RBC HotSpot Kinase Assay. Format: biochemical. More on the design: purchased Reaction Biology Corp., Malvern, Pa. The note with it: ATP 10 μM. As for the experimental part:
The RBC HotSpot Kinase assay (Reaction Biology Corp., Malvern, Pa.) was used to evaluate the ability of test compounds to modulate (e.g., inhibit) the enzymatic activity of human TNK1 (UniProt Accession No. Q13470) in the following reaction:
Reagent: Base Reaction buffer; 20 mM Hepes (pH 7.5), 10 mM MgCl2, 1 mM EGTA, 0.02% Brij35, 0.02 mg/ml BSA, 0.1 mM Na3VO4, 2 mM DTT, 1% DMSO. Required cofactors were added individually to each kinase reaction.
Compound handling: Test compounds were dissolved in 100% DMSO to specific concentration. The serial dilution was conducted by Integra Viaflo Assist in DMSO.
1. Prepared substrate (peptide substrate, poly[Glu:Tyr] (4:1), 0.2 mg/ml; ATP 10 μM) in freshly prepared Reaction Buffer;
2. Delivered any required cofactors to the substrate solution;
3. Delivered kinase (TNK1) into the substrate solution and gently mixed;
4. Delivered compounds in 100% DMSO into the kinase reaction mixture by Acoustic technology (Echo550; nanoliter range), incubated for 20 minutes at room temperature;
5. Delivered ^33P-ATP (specific activity 10 μCi/μl) into the reaction mixture to initiate the reaction;
6. Incubated for 2 hours at room temperature;
7. Detected radioactivity by filter-binding method;
8. Kinase activity data were expressed as the percent remaining kinase activity in test samples compared to vehicle (dimethyl sulfoxide) reactions. IC50 values and curve fits were obtained using Prism (GraphPad Software).

Test [2] has as its target T1, TNK1. Nature of the test: TNK1 NanoBRET target engagement assay (HEK293). Format: cell-based. Set-up: host or cells: HEK293. The note with it: HEK293 cells, 2 hours; read-out: NanoBRET TE Assay (HEK293) IC50. The text has this: The NanoBRET target engagement (TE) assay (Promega, Madison, Wis.) enables the interrogation of the displacement of a tracer compound in the active site of a recombinant kinase by a test compound in the intracellular setting. The assay enables simultaneous testing of permeability, solubility, and kinase inhibition, and tests the specific interaction of test agents with a kinase of interest, here, TNK1. The assay is based on the principle of bioluminescence resonance energy transfer (BRET). In the assay, a plasmid-encoded, luciferase-tagged form of TNK1 is transfected into cells. A tracer compound is tagged with a fluorophore that fluoresces when bound to the TNK1 protein. Readout is luminescence and fluorescence. Test compounds show activity by displacing the tracer, thus disrupting BRET.
Methods: The TNK1 NanoBRET TE assays were performed according to the manufacturer's protocol. Briefly, Nanoluc-TNK1 Fusion Vector (Promega, Madison, Wis., Cat. No. NV2181) was transfected into HEK293 cells in bulk (8×10^6 cells in a T175 flask). Up to 30 hours post-transfection, cells were harvested by trypsinization, resuspended at a concentration of 2×10^5 cells/mL, and seeded in 96-well plates at 85 μL/well. A test compound and the K5 tracer were added to each well, and the cells were incubated for 2 hours. Luminescence ([…]) and fluorescence ([…]) were measured to determine a BRET ratio. IC50 values were determined from the BRET ratios using the Graphpad Prism software (GraphPad Software, San Diego, Calif.).
On the technique in general: Bioluminescence resonance energy transfer reports proximity on the nanometre scale.

The test system of test [3] is phospho-STAT5 in L540 cells. The test is described as follows: In vitro pSTAT5 assay (ELISA) in L540 cells. Format: cell-based. The note with it: Homo sapiens, L-540, 24 hours, normalized to cell viability, read-out: P-STAT5 Assay IC50. On the procedure:
The L540 cell line harbors a truncating mutation in the C-terminal regulatory region of the protein. As a consequence, TNK1 in L540 cells is constitutively active in phosphorylating key proteins, including STAT5. In TNK1 wild-type conditions (e.g., K562 CML cells), STAT5 phosphorylation is achieved in a TNK1-independent fashion. As such, reductions in phospho-STAT5 signal specific to the L540 cells are a good readout of TNK1 inhibitor function.
Methods: The in vitro pSTAT5 assay was performed with STAT5 AB (pY964/699) SimpleStep ELISA Kit (Abcam No. ab176656) according to the manufacturer's protocol. Briefly, L540 cells were grown in RPMI1640 media under standard culture conditions (10% FBS with penicillin/streptomycin). To assess test compound effects, cells were plated in 96 well plates (250,000 cells/mL) and allowed to grow overnight. Cells were subsequently treated with varying concentrations of test compound for 24 hours, before being harvested and interrogated with the STAT5 AB (pY964/699) SimpleStep ELISA Kit according to the manufacturer's protocol. Phospho-STAT5 signal was normalized to cell viability, as assessed by the CellTiter-Glo assay (Promega, Cat. No. G7570) on treated cells. TNK1 inhibitor IC50s were determined using Graphpad Prism software on normalized phospho-STAT5 measurements.
For orientation: ELISA stands for enzyme-linked immunosorbent assay.

For `COc1cc(N2CCN(C)CC2)c(C)cc1Nc1ncc(C(C)=O)c(Nc2cccnc2N(C)C)n1` [Example No. 12, 1-(4-((2-(dimethylamino)pyridin-3-yl)amino)-2-((2-methoxy-5-methyl-4-(4-methylpiperazin-1-yl)phenyl)amino)pyrimidin-5-yl)ethan-1-one], the IC50 (in general, the midpoint of a concentration-inhibition curve) on TNK1 [1] is 15 to 50 nM; at TNK1 [2], greater than 1000 nM; in test [3], greater than 50 nM.
For `COc1cc(N2CCN(C)CC2)c(C)cc1Nc1ncc(Cl)c(Nc2cccnc2N2CCCCC2)n1` [Example No. 14, 5-chloro-N2-(2-methoxy-5-methyl-4-(4-methylpiperazin-1-yl)phenyl)-N4-(2-(piperidin-1-yl)pyridin-3-yl)pyrimidine-2,4-diamine], in that order: 15 to 50 nM, greater than 1000 nM and greater than 50 nM.
For `COc1cc(N2CCN(C)CC2)c(C)cc1Nc1ncc(Cl)c(Nc2cccnc2N2CCCCC2=O)n1` [Example No. 15, 1-(3-((5-chloro-2-((2-methoxy-5-methyl-4-(4-methylpiperazin-1-yl)phenyl)amino)pyrimidin-4-yl)amino)pyridin-2-yl)piperidin-2-one], in that order: 15 to 50 nM, 150 to 1000 nM and greater than 50 nM.
For the molecule `COc1cc(N2CCN(C)CC2)ccc1Nc1ncc(Cl)c(Nc2cccnc2N(C)C)n1` [Example No. 16, 5-chloro-N4-(2-(dimethylamino)pyridin-3-yl)-N2-(2-methoxy-4-(4-methylpiperazin-1-yl)phenyl)pyrimidine-2,4-diamine], the figures for the IC50 (against TNK1 [1]; on TNK1 [2]; in test [3]) were less than 5 nM, 150 to 1000 nM and 5 to 50 nM, respectively.
The like results for `CN1CCN(c2ccc(Nc3ncc(Cl)c(Nc4cccnc4N(C)C)n3)c3ccccc23)CC1` [Example No. 17, 5-chloro-N4-(2-(dimethylamino)pyridin-3-yl)-N2-(4-(4-methylpiperazin-1-yl)naphthalen-1-yl)pyrimidine-2,4-diamine] were, in that order, 5 to 15 nM, greater than 1000 nM and greater than 50 nM.
For `COc1cc(N2CCN(C)CC2)c(Cl)cc1Nc1ncc(Cl)c(Nc2cccnc2N2CCCCC2=O)n1` [Example No. 19, 1-(3-((5-chloro-2-((5-chloro-2-methoxy-4-(4-methylpiperazin-1-yl)phenyl)amino)pyrimidin-4-yl)amino)pyridin-2-yl)piperidin-2-one], in that order: 5 to 15 nM, 150 to 1000 nM and 5 to 50 nM.
With `COc1cc(N2CCN(C)CC2)c(C)cc1Nc1ncc(C#N)c(Nc2cccnc2N(C)C)n1` [Example No. 20], the IC50 against TNK1 [1] was in the range of 5 to 15 nM; at TNK1 [2], 150 to 1000 nM.
Turning to `COc1cc(N2CCN(C)CC2)c(Cl)cc1Nc1ncc(Br)c(Nc2cccnc2N(C)C)n1` [Example No. 22, 5-bromo-N-(5-chloro-2-methoxy-4-(4-methylpiperazin-1-yl)phenyl)-N-(2-(dimethylamino)pyridin-3-yl)pyrimidine-2,4-diamine], the IC50 against TNK1 [1] was less than 5 nM.
Same read-out and setting: then `COc1cc(N2CCN(C)CC2)c(Cl)cc1Nc1ncc(Br)c(Nc2cccnc2N2CCCC2=O)n1` [Example No. 23, 1-(3-((5-bromo-2-((5-chloro-2-methoxy-4-(4-methylpiperazin-1-yl)phenyl)amino)pyrimidin-4-yl)amino)pyridin-2-yl)pyrrolidin-2-one], with less than 5 nM; and `CN1CCN(c2c(Cl)cc(Nc3ncc(Cl)c(Nc4cccnc4N4CCCC4=O)n3)c3cccnc23)CC1` [Example No. 24, 1-(3-((5-chloro-2-((7-chloro-8-(4-methylpiperazin-1-yl)quinolin-5-yl)amino)pyrimidin-4-yl)amino)pyridin-2-yl)pyrrolidin-2-one], with less than 5 nM; and `COc1cc(N2CCN(C)CC2)c(C)cc1Nc1ncc(Br)c(Nc2ccncc2N(C)C)n1` [Example No. 25, 5-bromo-N-(3-(dimethylamine)pyridin-4-yl)-N-(2-methoxy-5-methyl-4-(4-methylpiperazin-1-yl)phenyl)pyrimidine-2,4-diamine], with less than 5 nM.
The same measure, in the same setting: then `CN1CCN(c2c(Cl)cc(Nc3ncc(Cl)c(Nc4cccnc4N4CCCC4=O)n3)c3c2CCCO3)CC1` [Example No. 26, 1-(3-((5-chloro-2-((6-chloro-5-(4-methylpiperazin-1-yl)chroman-8-yl)amino)pyrimidin-4-yl)amino)pyridin-2-yl)pyrrolidin-2-one], with less than 5 nM; and `[2H]C([2H])([2H])N(c1ncccc1Nc1nc(Nc2cc(C)c(N3CCN(C)CC3)cc2OC)ncc1Br)C([2H])([2H])[2H]` [Example No. 27, N^4-(2-(bis(methyl-d3)amino)pyridin-3-yl)-5-bromo-N-(2-methoxy-5-methyl-4-(4-methylpiperazin-1-yl)phenyl)pyrimidine-2,4-diamine], with less than 5 nM.
On to `COc1cc(N2CCNCC2)c(Cl)cc1Nc1ncc(Cl)c(Nc2cccnc2N2CCCC2=O)n1` [Example No. 28, 1-(3-((5-chloro-2-((5-chloro-2-methoxy-4-(piperazin-1-yl)phenyl)amino)pyrimidin-4-yl)amino)pyridin-2-yl)pyrrolidin-2-one], for which the IC50 on TNK1 [1] is less than 5 nM.
Still for that read-out and setting: then `[2H]C([2H])([2H])N1CCN(c2cc(OC)c(Nc3ncc(Cl)c(Nc4cccnc4N4CCCC4=O)n3)cc2Cl)CC1` [Example No. 29, 1-(3-((5-chloro-2-((5-chloro-2-methoxy-4-(4-(methyl-d3)piperazin-1-yl)phenyl)amino)pyrimidin-4-yl)amino)pyridin-2-yl)pyrrolidin-2-one], with less than 5 nM; and `COc1cc(N2CCN(CCO)CC2)c(Cl)cc1Nc1ncc(Cl)c(Nc2cccnc2N2CCCC2=O)n1` [compound 30, 1-(3-((5-chloro-2-((5-chloro-4-(4-(2-hydroxyethyl)piperazin-1-yl)-2-methoxyphenyl)amino)pyrimidin-4-yl)amino)pyridin-2-yl)pyrrolidin-2-one], with less than 5 nM.
